Measurements as given in a melting point compilation (Tetko et al.; mined from patent text by program, amines drawn as free bases though some values may be those of a salt).

| Structure (SMILES) | melting point |
| --- | --- |
| COc1ccc(CN(Cc2ccc(OC)cc2)c2nc(Cl)c3ncn(Cc4ccc(OC)cc4)c3n2)cc1 | 157 to 159 °C |
| Cc1cc(-c2ccc(S(C)(=O)=O)cc2)n(-c2ccc(F)cc2)c1 | 127 to 130 °C |
| CC1(C)CC(=O)Nc2ccc([N+](=O)[O-])cc21 | 202 to 204 °C |
| CC(C)n1c(=O)n(C)c(=O)c2c(S(=O)CCCO)n(Cc3cccc4ccccc34)cc21 (stereo unspecified) | 184 to 185 °C |
| CCN(CC)CC(=O)Nc1ccc([N+](=O)[O-])cc1 | 65 to 66 °C |
| CN(C(=O)CN1C(=O)C2(COc3cc4c(cc32)CCO4)c2ccccc21)c1ccccc1 (stereo unspecified) | 234 to 238 °C |
| CCCCC(CC)COC(=O)CSc1cc2c(cc1SCC(=O)OCC(CC)CCCC)C(=O)c1cc3ccccc3cc1C2=O (stereo unspecified) | 75 to 80 °C |
| O=C(O)c1c(C(F)(F)F)ccc(Cl)c1Cl | 88 to 89 °C |
| Cc1nc2cnc3ccccc3c2n1CC(C)O (stereo unspecified) | 176 to 177 °C |
| CCN(CC)C(=S)n1cnc(S(=O)(=O)CC2CCCC2)n1 | 78 °C |
| CN(Sc1ccccc1[N+](=O)[O-])C(=O)Nc1ccc(Cl)cc1 | 157 to 158 °C |
| N#CNC=NCc1ncc(C(F)(F)F)cc1Cl | 106 to 108 °C |
| Cc1nc2c3c(ccc2n1C)[C@H](O)C[C@H](c1ccccc1)O3 (relative stereo) | 228 to 229 °C |
| Cc1ccc(-c2nc(Cl)cc(N3CCN(CCO)CC3)n2)cc1 | 104 °C |
| O=C(NCCCCCCNC(=O)c1ccc(Oc2ccccc2)cc1)c1ccc(Oc2ccccc2)cc1 | 183 to 184 °C |
| c1ccc(C(OC2CCN(CCCCCNc3ccc4ncnn4n3)CC2)c2ccccc2)cc1 | 96 to 98 °C |
| Cc1ccc([N+](=O)[O-])c(OCCOc2cc(C(=O)OC(C)(C)C)ccc2[N+](=O)[O-])c1 | 113 to 114 °C |
| CCC(Oc1ccc(C(C)(C)CC)cc1C(C)(C)CC)C(=O)Nc1cccc(C(=O)NC2=NN(c3c(Cl)cc(Cl)cc3Cl)C(=O)C2N2CCCCC2)c1 (stereo unspecified) | 186 to 190 °C |
| CCCN1CC(c2ccc(S(C)(=O)=O)cc2)=C(c2cccc(C)c2)C1=O | 120 to 122 °C |
| O=C(C=Cc1ccc2c(c1)OCO2)c1cccc(OCCCCBr)c1 | 97 to 98 °C |
| Nc1ncnc2c1c(-c1ccc(Oc3ccccc3)cc1)nn2C1CCOCC1 | 187 to 188 °C |
| CC(=O)OCC1c2ccccc2-c2c1c1ccccc1c1ccccc21 (stereo unspecified) | 135 to 136 °C |
| Nc1cc2ccncc2c2sc3ccccc3c12 | 220 to 225 °C |
| CCCCOc1c(CNC(=O)OC(C)(C)C)n(CC(C)C)c(=O)c2ccc(-c3ccccn3)cc12 | 123 to 124 °C |
| CCOCOC(=O)Cc1c(C)n(C(=O)c2ccc(Cl)cc2)c2ccc(OC)cc12 | 60 to 61 °C |
| O=C(Nc1ccccc1S(=O)(=O)c1ccccc1)N[C@@H](Cc1ccc(OC(=O)c2c(Cl)cncc2Cl)cc1)C(=O)O | 186 °C |

| Structure (SMILES) | melting point |
| --- | --- |
| O=C1NC(=O)C(S(=O)(=O)c2ccc(Cl)cc2)S1 (stereo unspecified) | 143 to 144 °C |
| CN(C)CCNS(=O)(=O)c1ccc(O)cc1 | 165 to 168 °C |
| COC(=O)c1nc2cc(Cl)c(Cl)c(Cl)c2c(O)c1C(=O)OC | 227 to 228 °C |
| CC(=O)N[C@@H](C)COc1cc2oc(-c3ccc(OC[C@H]4CC4(F)F)cc3)nc2cn1 | 205 °C |
| C=CCOc1ccc(C(=O)C=Cc2cc(OC)c(CCCCCC)c(OC)c2)cc1 | 77.9 to 78.2 °C |
| Cn1cc(C(=S)NCc2ccc(Cl)cc2)c(=O)c2cc(C#CCO)ccc21 | 200 to 201 °C |
| Cc1ccc(-c2c(NS(=O)(=O)c3ccc(C(C)(C)C)cc3)nc(NCCOC3CCCCO3)nc2OCCO)cc1 (stereo unspecified) | 113 to 116 °C |
| O=C(NCCO[N+](=O)[O-])c1ccc(Br)o1 | 61 to 63 °C |
| CC1(C)OC(=S)Nc2ccc(-c3ccc(C#N)o3)cc21 | 200 °C |
| CCCCc1c(Cl)nc(O)nc1Cl | 73 to 75 °C |
| COC(=O)C1=C(NC(=O)NC2CCCCC2)CSC1 | 154 to 155 °C |
| CCC1CCC2C3CCC4CC(O)CCC4(C)C3C(N(C)C)CC12C (stereo unspecified) | 147 to 150 °C |
| CC(C)c1cc2c(cc1CCSCC(=O)O)OCO2 | 75.5 to 76 °C |
| O=C(O)c1ccc(N2C(=O)C3C4C=CC(C4)C3C2=O)cc1 (stereo unspecified) | 224 to 228 °C |
| CC(=O)Nc1nc(N)nc(NC2CC2)n1 | 190 to 195 °C |
| CCOC(=O)c1c(-c2ccc(OC)cc2)c2oc3ccc(-c4ccccc4)cc3c2n(Cc2cc(OC)ccc2OC)c1=O | 216 °C |
| COc1ccc(C(=CC(=O)N2CCOCC2)c2ccc(O)cc2)cc1OC | 105 to 120 °C |
| FCc1cccc(C#CCCn2ncc(-c3ccc(F)cc3)n2)n1 | 84 to 86 °C |
| Cc1nc2ccccc2c(=O)n1CCCl | 114 to 116 °C |
| Fc1cc2c(c(OCCNCCCc3c[nH]c4ccc(F)cc34)c1)OCCC2 | 137 to 138 °C |
| CS(=O)(=O)c1ccc(-n2cnc(Cl)c2-c2ccc(Cl)c(Cl)c2)cc1 | 156 to 157 °C |
| CN(C)C1CCN(c2nc(N3CCc4ccccc4C3)c3ncnc(N4CCOCC4)c3n2)CC1 | 49 to 53 °C |
| OCCCN1CCC(c2noc3cc(F)ccc23)CC1 | 140 to 142 °C |
| N#Cc1ccc(Cl)cc1NC(CCO)c1ccccc1 (stereo unspecified) | 88 to 90 °C |
| Cc1ccc(N2C(=O)c3ccccc3C2=O)c(Cl)c1Cl | 109 °C |
| O=Cc1c[nH]c(-c2cccs2)c1 | 198 to 199 °C |

| Structure (SMILES) | melting point |
| --- | --- |
| O=C1c2ccc([N+](=O)[O-])cc2C2(c3ccccc3)NCCN12 (stereo unspecified) | 203 °C |
| COC1=NS(=O)N=C1OC | 137 to 139 °C |
| O=C(O)CC(C(=O)NC(CO)Cc1ccccc1)C1(c2ccc(-c3ccccc3)cc2)C=CNC1 (stereo unspecified) | 151 to 154 °C |
| CC(=O)NCCn1cccc1C1=CC(=O)c2ncccc2C1=O | 164 to 165 °C |
| Nc1ccc(S(=O)(=O)Nc2nnc(CO)s2)cc1 | 89 to 90 °C |
| COc1cc(C=C(C#N)C(=O)Nc2cccc(Cl)c2)cc(Cl)c1O | 225 to 226 °C |
| CCCCCC(=O)NS(=O)(=O)CCc1cc(OC(C)C)nn1Cc1ccc(Cl)cc1Cl | 107 to 108 °C |
| CCOC(=O)c1c(C(F)(F)F)nc(C(F)F)c(C(=O)OC)c1N(C)C | 80 to 81 °C |
| COc1ccc(N2CCN(c3c(C)c(C)c4c(c3C)C(c3ccccn3)C(C)(C)O4)CC2)cc1 (stereo unspecified) | 123 to 125 °C |
| O=C1NC(=O)c2c1c(-c1ccccc1Cl)cc1c2ccn1CCN1CCCC1 | 208 to 209 °C |
| CC(C)(O)Cn1cnc2c(N)nc3ccc(Br)cc3c21 | 197 to 198 °C |
| c1cc2c(cc1OCC1CCCCC1)CCCCC2 | 62 to 63 °C |
| COc1ccc(C2Cc3ccccc3C2=O)cc1 (stereo unspecified) | 83 to 85 °C |
| CCC(CC)C(=O)C(C1CCc2ccccc2N1)N1CCN(c2cccc3[nH]ccc23)CC1 (stereo unspecified) | 145 to 148 °C |
| BrCc1c(Br)cccc1Br | 77 to 78 °C |
| CCOC(=O)CCC1(CCC(=O)OCC)CCC(=O)N1 | 44 to 46 °C |
| CC(C)(C)OC(=O)N1CCC(CCNC(=O)c2noc(-c3ccc(C#N)cc3)n2)CC1 | 138 to 139 °C |
| Cc1cccc(Nc2cc(Nc3ccc(OCCO)cc3)ncn2)c1 | 196 to 199 °C |
| Oc1ccc(OCC(O)CNC2CCN(c3ccc(Cl)cn3)CC2)cc1 (stereo unspecified) | 148 to 150 °C |
| CCCN1C(=O)OC2(CCN(CC=C(c3ccc(F)cc3)c3ccc(F)cc3)CC2)C1(C)O (stereo unspecified) | 128 to 129 °C |
| COc1cc(C2CCN(C[C@H](O)CO)CC2)ccc1Nc1ncc2ccc(-c3ccccc3N(C)S(C)(=O)=O)n2n1 | 108 to 116 °C |
| CCON=C(c1ccccc1SCc1ccc(Cl)cc1)n1ccnc1 | 96.5 to 97.5 °C |
| CCn1ncc2c(NCC3CCC(CO)CC3)c3ccccc3nc21 (stereo unspecified) | 188 to 190 °C |
| O=C(O)C=CC(=O)Oc1ccccc1 | 127 to 128 °C |
| CC(C)(CCCOc1ccc(CCC(=O)c2ccc(-c3ccc(C(F)(F)F)cc3)s2)c(Cl)c1Cl)C(=O)O | 167 to 169 °C |
| c1ccc(Cn2ccc3ccccc32)cc1 | 43 to 45 °C |

| Structure (SMILES) | melting point |
| --- | --- |
| O=C1C(c2ccccc2)=C(c2ccccc2)C(=O)N1CCc1cccc(F)c1 | 129 to 130 °C |
| CCOC(=O)Cc1nc(-c2ccc(C)cc2)oc1-c1ccco1 | 84 to 85 °C |
| CN(CCCc1ccccc1)[C@H]1CC[C@H](c2ccc(O)cc2)CC1 | 156 to 158 °C |
| Nc1ccc2c(c1)OCCNC2=O | 151 to 152 °C |
| O=c1nc(-c2ccccn2)sc2cc(Br)ccc12 | 231 to 232 °C |
| COc1cc2c(cc1O)CCCC2=O | 117 to 119 °C |
| CSc1cc(C(=O)CBr)ccc1C | 85 to 86 °C |
| O=C1NCC(Cc2ccccc2Cc2ccccc2)O1 (stereo unspecified) | 105 to 106 °C |
| C=CCC(C(=O)OC)C(=O)c1cccnc1 (stereo unspecified) | 112 to 113 °C |
| CN(CCc1ccccc1)C1CCN(C(=O)Nc2ccccc2)CC1 | 105 to 107 °C |
| N#Cc1ccc(N2CCN(Cc3cn4cc(Cl)ccc4n3)CC2)c(Cl)c1 | 137 to 138 °C |
| CC[C@@H](C[C@H](O)[C@H](CC1CCCCC1)NC(=O)[C@H](Cc1c[nH]cn1)NC[C@H](Cc1ccccc1)NC(=O)OC(C)(C)C)C(C)C | 144 °C |
| CC(C)(C)NCC(O)c1ccc(O)c(C(O)CO)c1 (stereo unspecified) | 190 to 192 °C |
| CC1Cc2ccccc2C(O)(C2CCN(C)CC2)c2ccsc21 (stereo unspecified) | 177 to 178 °C |
| CSc1ccc(/C=C2\N=C(C)OC2=O)cc1 | 154 to 155 °C |
| COC(=O)c1cn(Cc2ccccc2F)cn1 | 87 to 89 °C |
| Cc1nnc2n1-c1ccc(Br)cc1C(c1ccccc1Cl)=CC2 | 250 to 252 °C |
| CCC(=O)c1cc(C(=O)C(=O)c2cccc(OC)c2)cn1CC | 97 °C |
| CCCOC1CCC2C3CCC4=CC(=O)CCC4C3CCC12CC (stereo unspecified) | 83 to 84 °C |
| CN(CCOCC(=O)OC(C)(C)C)C(=O)c1c(-c2ccc(C(C)(C)C)cc2)n(C)n(-c2ccc(C#N)cc2)c1=O | 218 to 222 °C |
| CCc1nnc(C=Cc2ncc([N+](=O)[O-])n2C)s1 | 165 °C |
| CC1=NC(NC(=O)Nc2cccc(C)n2)C(=O)N(CC(=O)N2CC3CCC(CC3)C2)c2c(C)cccc21 (stereo unspecified) | 151 to 152 °C |
| Cn1cc(CNC(=O)c2ccnc(N3CCN(Cc4ccc(F)cc4)C3=O)c2)cn1 | 165 to 166 °C |
